Experimental data from article PMC9317443 (Viruses, 2022).
Where two headings read alike, the source gives them in different places.

Assays:
[1] = MTT cytotoxicity / cell viability in CHIKV replicon cells; conditions: hamster, BHK-21-GLuc-nsP-CHIKV-99659 cells (CHIKV replicon cells)
[2] = tested on: CHIKV replicon; test: CHIKV replicon-based assay (GLuc activity in BHK-21-GLuc-nsP-CHIKV-99659 cells); conditions: for inhibition at 10 µM: read-out: GLuc Inhibition; for EC50: read-out: EC50 (concentration required to inhibit 50% of the GLuc activity), 48 h; for SI (CC50/EC50): replicon-based assay
[3] = tested on: BHK-21-GLuc-nsP-CHIKV-99659 cells; test: MTT cytotoxicity / cell viability in CHIKV replicon cells; conditions: CHIKV replicon cells, 48 h, MTT assay; for CC50: read-out: CC50 (50% cytotoxicity)
[4] = tested on: BHK-21 cells; test: Cell viability in the viral infection assay; type: cell-based
[5] = tested on: CHIKV-nanoluc; test: Viral infection assay with CHIKV-nanoluc in BHK-21 cells; type: cell-based, Chikungunya virus; conditions: MOI 0.1, 16 h.p.i., read-out: EC50 (CHIKV-nanoluc replication)
[6] = cited from earlier work
[7] = Cell viability in the viral infection assay; type: cell-based; conditions: hamster, BHK-21 cells infected with CHIKV-nanoluc
[8] = tested on: replication-transcription complex (RTC); conditions: cited from earlier work
[9] = CHIKV replicon cells, GLuc signal from supernatant

SMILES: Clc1ccccc1C(c1ccccc1)(c1ccccc1)n1ccnc1 [Clotrimazole]
- viability at 10 µM [1]: 70.2%
- inhibition at 10 µM ([2]; Chikungunya virus): 70.7%

SMILES: C[C@@H](c1ncncc1F)[C@](O)(Cn1cncn1)c1ccc(F)cc1F [Voriconazole]
- viability at 10 µM [1]: 91.8%
- inhibition at 10 µM ([2]; Chikungunya virus): 13.9%

SMILES: O=C(N[C@@H]1CCCc2c1[nH]c1ccc(Cl)cc21)c1ccccn1 [GSK-983]
- CC50 (50% cytotoxicity) [3]: moderate toxicities
- CC50 [3]: 10 ± 0.07 µM
- EC50 [2, 9]: 0.33 ± 0.2 µM
- SI (CC50/EC50) [2]: 30
- CC50 [4]: > 100 µM
- EC50 [5]: 13.8 ± 3.3 µM

SMILES: CC[C@@H]([C@H](C)O)n1ncn(-c2ccc(N3CCN(c4ccc(OC[C@@H]5CO[C@@](Cn6cncn6)(c6ccc(F)cc6F)C5)cc4)CC3)cc2)c1=O [Posaconazole]
- viability at 10 µM [1]: 100%
- inhibition at 10 µM ([2]; Chikungunya virus): 11.8%
- no toxic effects up to concentration [6]: > 100 µM

SMILES: Clc1ccc(COC(Cn2ccnc2)c2ccc(Cl)cc2Cl)cc1 (stereo not shown) [Econazole]
- viability at 10 µM [1]: 81.8%
- inhibition at 10 µM ([2]; Chikungunya virus): 43.8%

SMILES: C[C@@H](c1nc(-c2ccc(C#N)cc2)cs1)[C@](O)(Cn1cncn1)c1cc(F)ccc1F [Isavuconazole]
- viability at 10 µM [1]: 100%
- inhibition at 10 µM ([2]; Chikungunya virus): 28.6%

SMILES: CC(=O)N1CCN(c2ccc(OCC3COC(Cn4ccnc4)(c4ccc(Cl)cc4Cl)O3)cc2)CC1 (stereo not shown) [Ketoconazole]
- viability at 10 µM [1]: 100%
- inhibition at 10 µM ([2]; Chikungunya virus): 0%

SMILES: CCC(C)n1ncn(-c2ccc(N3CCN(c4ccc(OCC5COC(Cn6cncn6)(c6ccc(Cl)cc6Cl)O5)cc4)CC3)cc2)c1=O (stereo not shown) [Itraconazole, itraconazole]
- CC50 at 48 h [1]: > 100 µM
- EC50 ([2]; Chikungunya virus): 0.32 ± 0.2 µM
- SI (CC50/EC50) [2]: > 312
- CC50 at 16 h [7]: > 100 µM
- EC50 ([5]; Chikungunya virus): 0.34 ± 0.02 µM

SMILES: Clc1ccc(COC(Cn2ccnc2)c2ccc(Cl)cc2Cl)c(Cl)c1 (stereo not shown) [Miconazole]
- viability at 10 µM [1]: 100%
- inhibition at 10 µM ([2]; Chikungunya virus): 27.8%

SMILES: C[C@H](C(N)=O)N1CCCC[C@@H]1c1ccc(OCc2cccc(F)c2)cc1 [MMV676270]
- CC50 (50% cytotoxicity) [3]: moderate toxicities
- CC50 [3]: 52 ± 20 µM
- EC50 [2, 9]: 5.2 ± 1 µM
- SI (CC50/EC50) [2]: 10
- CC50 [4]: 59.5 µM
- EC50 [5]: 18.4 ± 5 µM

SMILES: Clc1ccc(C(Cn2ccnc2)OCc2ccsc2Cl)c(Cl)c1 (stereo not shown) [Tioconazole]
- viability at 10 µM [1]: 68.4%
- inhibition at 10 µM ([2]; Chikungunya virus): 54.8%

SMILES: Cc1ccc(C(=O)Nc2ccc(S(=O)(=O)O)c3cc(S(=O)(=O)O)cc(S(=O)(=O)O)c23)cc1NC(=O)c1cccc(NC(=O)Nc2cccc(C(=O)Nc3cc(C(=O)Nc4ccc(S(=O)(=O)O)c5cc(S(=O)(=O)O)cc(S(=O)(=O)O)c45)ccc3C)c2)c1 [suramin]
- EC50 [8]: 6.7 µM
- CC50 at 48 h [1]: > 50 µM
- EC50 ([2]; Chikungunya virus): 3.2 ± 0.3 µM

SMILES: C[C@@H](c1nc(-c2ccc(C#N)cc2)cs1)[C@](O)(Cn1cncn1)c1ccc(F)cc1F [Ravuconazole]
- viability at 10 µM [1]: 100%
- inhibition at 10 µM ([2]; Chikungunya virus): 25.4%

SMILES: CC[C@@]1(O)C(=O)OCc2c1cc1n(c2=O)Cc2cc3c([N+](=O)[O-])cccc3nc2-1 [Rubitecan, rubitecan]
- CC50 at 48 h [1]: > 100 µM
- EC50 ([2]; Chikungunya virus): 0.14 ± 0.03 µM
- SI (CC50/EC50) [2]: > 714
- CC50 at 16 h [7]: > 100 µM
- EC50 ([5]; Chikungunya virus): 3.6 ± 0.8 µM

SMILES: OC(Cn1cncn1)(Cn1cncn1)c1ccc(F)cc1F [Fluconazole]
- viability at 10 µM [1]: 94.3%
- inhibition at 10 µM ([2]; Chikungunya virus): 0%
